In the experiment the test system is Nucleic Acid. Briefly: The compound was tested for its ability to inhibit the incorporation of tritiated thymidine into mammalian epithelial cells (DNA) at 30 uM dose. It counts as cell-based. The settings on record: Epithelial cell.

For eight molecules, inhibition results are on record in ChEMBL document CHEMBL1125851, “Trans-esterification reactions yield novel masked phosphate derivatives of the anti-cancer agent araC” (Bioorg Med Chem Lett, 1991).

Broadly, the inhibition is how much of the control response was suppressed. `CCCNP(=O)(OC[C@H]1OC(n2ccc(N)nc2=O)[C@@H](O)[C@@H]1O)OCC(Cl)(Cl)Cl` (stereo partly drawn) showed an inhibition of 45%. The same measure for `Nc1ccn([C@@H]2O[C@H](CO)[C@@H](O)[C@@H]2O)c(=O)n1`: 83%; for `CCCCNP(=O)(OC[C@H]1OC(n2ccc(N)nc2=O)[C@@H](O)[C@@H]1O)OCC(Cl)(Cl)Cl` (stereo partly drawn): 48%. With `CCOP(=O)(OC[C@H]1OC(n2ccc(N)nc2=O)[C@@H](O)[C@@H]1O)OCC(Cl)(Cl)Cl` (single isomer, unassigned; form 1), the inhibition worked out at 31%.

`CCCOP(=O)(OC[C@H]1OC(n2ccc(N)nc2=O)[C@@H](O)[C@@H]1O)OCC(Cl)(Cl)Cl` (stereo partly drawn) had an inhibition of 40%. Molecule `COP(=O)(OC[C@H]1OC(n2ccc(N)nc2=O)[C@@H](O)[C@@H]1O)OCC(Cl)(Cl)Cl` (stereo partly drawn) returned an inhibition of 22%. Consider `CCOP(=O)(OC[C@H]1OC(n2ccc(N)nc2=O)[C@@H](O)[C@@H]1O)OCC(Cl)(Cl)Cl` (single isomer, unassigned; form 2), for which the inhibition came out at 30%. The result for `Nc1ccn(C2O[C@H](COP(=O)(OCC(Cl)(Cl)Cl)OCC(Cl)(Cl)Cl)[C@@H](O)[C@@H]2O)c(=O)n1` (stereo partly drawn) reads 91%.
